Assay results: PubChem BioAssay AID248 (DTP/NCI, 2004)
Values joined by “and” are separate entries in the source; they are usually repeats but may differ in a detail not shown here. Equal values may be shown once. Inconclusive results and toxic doses are left out.

Tested on: L1210 leukemia ip in BDF1 mice, survival T/C
Test: NCI In Vivo Anticancer Drug Screen. Data for tumor model L1210 Leukemia (intraperitoneal) in B6D2F1 (BDF1) mice
Details: endpoint: mean survival time, higher = longer survival
In short: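 Mice bearing the transplanted tumor received compound or vehicle. Survival of the treated group was divided by that of the vehicle-treated control group to give the ratio.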

[1] = dose: 100.0 mg/kg/injection, schedule: Q01DX001 (ip), vehicle: Klucel (hydroxypropylcellulose) (HPC)
[2] = dose: 200.0 mg/kg/injection, schedule: Q01DX001 (ip), vehicle: Klucel (hydroxypropylcellulose) (HPC)
[3] = dose: 400.0 mg/kg/injection, schedule: Q01DX001 (ip), vehicle: Klucel (hydroxypropylcellulose) (HPC)
[4] = dose: 100.0 mg/kg/injection, schedule: Q04DX003 (ip), vehicle: saline with Tween-80
[5] = dose: 100.0 mg/kg/injection, schedule: Q04DX002 (ip), vehicle: saline with Tween-80
[6] = dose: 200.0 mg/kg/injection, schedule: Q04DX002 (ip), vehicle: saline with Tween-80
[7] = dose: 400.0 mg/kg/injection, schedule: Q04DX002 (ip), vehicle: saline with Tween-80
[8] = dose: 100.0 mg/kg/injection, schedule: Q01DX009 (ip), vehicle: saline with Tween-80
[9] = dose: 200.0 mg/kg/injection, schedule: Q01DX009 (ip), vehicle: saline with Tween-80
[10] = dose: 50.0 mg/kg/injection, schedule: Q01DX001 (ip), vehicle: carboxymethylcellulose (CMC)
[11] = dose: 100.0 mg/kg/injection, schedule: Q01DX001 (ip), vehicle: carboxymethylcellulose (CMC)
[12] = dose: 200.0 mg/kg/injection, schedule: Q01DX001 (ip), vehicle: carboxymethylcellulose (CMC)
[13] = dose: 200.0 mg/kg/injection, schedule: Q04DX003 (ip), vehicle: saline with Tween-80
[14] = dose: 400.0 mg/kg/injection, schedule: Q04DX003 (ip), vehicle: saline with Tween-80
[15] = dose: 100.0 mg/kg/injection, schedule: Q01DX001 (ip), vehicle: saline

## CN(Cc1cnc2nc(N)cc(N)c2n1)c1ccc(C(=O)NC(CCC(=O)O)C(=O)O)cc1 (centres undefined)
dose: 0.5 mg/kg/injection, schedule: Q01DX009 (ip), vehicle: other
  T/C: 102 % of control
dose: 1.0 mg/kg/injection, schedule: Q01DX009 (ip), vehicle: other
  T/C: 100 % of control
dose: 2.0 mg/kg/injection, schedule: Q01DX009 (ip), vehicle: other
  T/C: 112 % of control
dose: 4.0 mg/kg/injection, schedule: Q01DX009 (ip), vehicle: other
  T/C: 105 % of control
dose: 8.0 mg/kg/injection, schedule: Q01DX009 (ip), vehicle: other
  T/C: 117 % of control
dose: 50.0 mg/kg/injection, schedule: Q01DX009 (ip), vehicle: other
  T/C: 154 % of control
dose: 100.0 mg/kg/injection, schedule: Q01DX009 (ip), vehicle: other
  T/C: 164 % of control

## COC(=O)C12CCC(=O)CC1(O)c1ccc(OC)cc1CC2 (centres undefined)
[1]
  T/C: 104 % of control
[2]
  T/C: 107 % of control
[3]
  T/C: 107 % of control

## COC(=O)c1cc(=O)c2c(=O)n(Cc3ccccc3)c(=O)n(Cc3ccccc3)c2[nH]1
[1]
  T/C: 106 % of control
[2]
  T/C: 100 % of control
[3]
  T/C: 118 % of control

## N=C(N)c1cccc(NC(=O)c2ccc(C(=O)Nc3cccc(C(=N)N)c3)c(N)c2)c1
dose: 5.0 mg/kg/injection, schedule: Q01DX Z (ip), vehicle: carboxymethylcellulose (CMC)
  T/C: 106 % of control
dose: 10.0 mg/kg/injection, schedule: Q01DX Z (ip), vehicle: carboxymethylcellulose (CMC)
  T/C: 104 % of control
dose: 20.0 mg/kg/injection, schedule: Q01DX Z (ip), vehicle: carboxymethylcellulose (CMC)
  T/C: 120 % of control

## CNCCc1ccc2cc(OC)c(OC)cc2c1
[4]
  T/C: 91 % of control

## CCCCCCCCCCCCCCCCOc1c(Br)cc(Br)cc1Br
[1]
  T/C: 87 % of control
[2]
  T/C: 90 % of control
[3]
  T/C: 105 % of control

## NCCC1CNCCN1.[Cl][Pd]([Cl])([Cl])[Cl] (centres undefined)
dose: 12.5 mg/kg/injection, schedule: Q01DX001 (ip), vehicle: saline
  T/C: 108 % of control
dose: 25.0 mg/kg/injection, schedule: Q01DX001 (ip), vehicle: saline
  T/C: 108 % of control
dose: 50.0 mg/kg/injection, schedule: Q01DX001 (ip), vehicle: saline
  T/C: 103 % of control
dose: 100.0 mg/kg/injection, schedule: Q01DX001 (ip), vehicle: DMSO
  T/C: 98 % of control

## O=C(NC(C(=O)SC1=NC=NC2=NC=NC21)C(SC1=NC=NC2=NC=NC21)c1cccnc1)c1ccccc1 (centres undefined)
dose: 37.5 mg/kg/injection, schedule: Q01DX Z (ip), vehicle: saline
  T/C: 153 % of control

## CN(C)c1ccc(/C(=C(\c2ccccc2)c2ccc(N(C)C)cc2)c2ccccc2)cc1
dose: 100.0 mg/kg/injection, schedule: Q04DX003 (ip), vehicle: Klucel (hydroxypropylcellulose) (HPC)
  T/C: 90 % of control
dose: 200.0 mg/kg/injection, schedule: Q04DX003 (ip), vehicle: Klucel (hydroxypropylcellulose) (HPC)
  T/C: 93 % of control
dose: 400.0 mg/kg/injection, schedule: Q04DX003 (ip), vehicle: Klucel (hydroxypropylcellulose) (HPC)
  T/C: 89 % of control

## c1ccc(-c2cn[nH]c2-c2ccccc2)cc1
[5]
  T/C: 103 % of control
[6]
  T/C: 100 % of control
[7]
  T/C: 106 % of control

## Nc1nc(C=O)c(-c2cccc3ccccc23)c(=O)[nH]1
[8]
  T/C: 112 % of control
[9]
  T/C: 94 % of control

## CCCCCCc1cc(OC(=O)c2ccccc2)ccc1OC(=O)c1ccccc1
[10]
  T/C: 94 % of control
[11]
  T/C: 97 % of control
[12]
  T/C: 89 % of control
dose: 400.0 mg/kg/injection, schedule: Q01DX001 (ip), vehicle: carboxymethylcellulose (CMC)
  T/C: 97 % of control

## O=C1c2cccc3cccc(c23)C1(c1ccccc1)c1ccccc1
dose: 100.0 mg/kg/injection, schedule: Q01DX009 (ip), vehicle: saline
  T/C: 100 % of control
dose: 200.0 mg/kg/injection, schedule: Q01DX009 (ip), vehicle: saline
  T/C: 100 % of control
dose: 400.0 mg/kg/injection, schedule: Q01DX009 (ip), vehicle: saline
  T/C: 111 % of control

## Fc1c(F)c(F)c(Oc2c(F)c(F)c(C(F)(F)F)c(F)c2F)c(F)c1F
[8]
  T/C: 102 % of control
[4]
  T/C: 94 % of control
[9]
  T/C: 98 % of control
[13]
  T/C: 92 % of control
dose: 400.0 mg/kg/injection, schedule: Q01DX009 (ip), vehicle: saline with Tween-80
  T/C: 98 % of control
[14]
  T/C: 92 % of control

## C=CC(C)NC(=S)NNC(=S)NC (centres undefined)
dose: 15.0 mg/kg/injection, schedule: Q01DX015 (ip), vehicle: carboxymethylcellulose (CMC)
  T/C: 95 % of control
dose: 30.0 mg/kg/injection, schedule: Q01DX015 (ip), vehicle: carboxymethylcellulose (CMC)
  T/C: 104 % of control
[10]
  T/C: 104 % of control
dose: 60.0 mg/kg/injection, schedule: Q01DX015 (ip), vehicle: carboxymethylcellulose (CMC)
  T/C: 95 % of control
[11]
  T/C: 105 % of control
dose: 120.0 mg/kg/injection, schedule: Q01DX015 (ip), vehicle: carboxymethylcellulose (CMC)
  T/C: 98 % of control
[12]
  T/C: 109 % of control
dose: 240.0 mg/kg/injection, schedule: Q01DX015 (ip), vehicle: carboxymethylcellulose (CMC)
  T/C: 87 % of control and 89 % of control

## O=C(O)C(O)C(F)(F)F (centres undefined)
dose: 31.0 mg/kg/injection, schedule: Q01DX Z (ip), vehicle: methylcellulose (MC)
  T/C: 102 % of control
dose: 62.5 mg/kg/injection, schedule: Q01DX Z (ip), vehicle: methylcellulose (MC)
  T/C: 96 % of control
dose: 125.0 mg/kg/injection, schedule: Q01DX Z (ip), vehicle: methylcellulose (MC)
  T/C: 100 % of control
dose: 250.0 mg/kg/injection, schedule: Q01DX Z (ip), vehicle: methylcellulose (MC)
  T/C: 97 % of control

## Cc1nn(C)c2c(N)ncnc12
dose: 75.0 mg/kg/injection, schedule: Q01DX001 (ip), vehicle: other
  T/C: 100 % of control
dose: 150.0 mg/kg/injection, schedule: Q01DX001 (ip), vehicle: other
  T/C: 102 % of control
dose: 300.0 mg/kg/injection, schedule: Q01DX001 (ip), vehicle: other
  T/C: 98 % of control

## CCCCCCCCCCCCCCCc1ccc([N+](=O)[O-])c(O)c1
dose: 100.0 mg/kg/injection, schedule: Q04DX003 (ip), vehicle: other
  T/C: 98 % of control
dose: 200.0 mg/kg/injection, schedule: Q04DX003 (ip), vehicle: other
  T/C: 101 % of control
dose: 400.0 mg/kg/injection, schedule: Q04DX003 (ip), vehicle: other
  T/C: 101 % of control

## CN1CCN(C2=Cc3ccccc3C(O)C(Cc3ccccc3)=N2)CC1 (centres undefined)
[4]
  T/C: 100 % of control
[13]
  T/C: 96 % of control
[14]
  T/C: 96 % of control

## O=c1cc(O)c2c(O)cc(O)cc2o1
[15]
  T/C: 96 % of control
dose: 200.0 mg/kg/injection, schedule: Q01DX001 (ip), vehicle: saline
  T/C: 96 % of control
dose: 400.0 mg/kg/injection, schedule: Q01DX001 (ip), vehicle: saline
  T/C: 88 % of control

## C#CCC(B1OCCO1)B1OCCO1
dose: 50.0 mg/kg/injection, schedule: Q01DX001 (ip), vehicle: Klucel (hydroxypropylcellulose) (HPC)
  T/C: 97 % of control
[1]
  T/C: 90 % of control
[2]
  T/C: 100 % of control

## CC(=O)C(C(=O)c1ccccc1)c1cc(NS(=O)(=O)N(C)C)ccc1NS(=O)(=O)N(C)C (centres undefined)
dose: 25.0 mg/kg/injection, schedule: Q01DX001 (ip), vehicle: saline with Tween-80
  T/C: 98 % of control
dose: 50.0 mg/kg/injection, schedule: Q01DX001 (ip), vehicle: saline with Tween-80
  T/C: 93 % of control
dose: 100.0 mg/kg/injection, schedule: Q01DX001 (ip), vehicle: saline with Tween-80
  T/C: 100 % of control

## CCNC(=O)C1C2CC3OC(=O)C1C3C2 (centres undefined)
[4]
  T/C: 90 % of control
[13]
  T/C: 95 % of control
[14]
  T/C: 95 % of control

## NC1CC(c2ccccc2)NC(c2ccccc2)C1 (centres undefined)
dose: 15.0 mg/kg/injection, schedule: Q01DX001 (ip), vehicle: carboxymethylcellulose (CMC)
  T/C: 100 % of control

## N=c1ccn(CC(O)COc2ccccc2)cc1 (centres undefined)
[15]
  T/C: 102 % of control

## NNC(=O)CC(NN)c1ccccc1O (centres undefined)
[5]
  T/C: 90 % of control
[6]
  T/C: 100 % of control
[7]
  T/C: 102 % of control

## CC1(C)OC(=O)CC1CCCC(=O)O (centres undefined)
dose: 100.0 mg/kg/injection, schedule: Q04DX002 (ip), vehicle: Klucel (hydroxypropylcellulose) (HPC)
  T/C: 104 % of control
dose: 200.0 mg/kg/injection, schedule: Q04DX002 (ip), vehicle: Klucel (hydroxypropylcellulose) (HPC)
  T/C: 96 % of control
dose: 400.0 mg/kg/injection, schedule: Q04DX002 (ip), vehicle: Klucel (hydroxypropylcellulose) (HPC)
  T/C: 96 % of control

## CCCCCCCCCCS
[11]
  T/C: 114 % of control
[12]
  T/C: 101 % of control
